From PubChem BioAssay AID602339 (The Scripps Research Institute Molecular Screening Center, 2012)
Activity calls are given as the source filed them. No rule for the calls is given here.

How the values were obtained:
Assay in all cases: off-target hydrolase engagement by SILAC proteomics – cell-based, ABPP-SILAC, LC-MS, selectivity assay for DAGLb inhibitor project, late-stage follow-up (AID 602339)
[1] = test system: Lipe; details: mouse cells, active compounds read low
[2] = test system: Pafah1b2; details: mouse cells, active compounds read low
[3] = test system: Prepl; details: mouse cells, active compounds read low
[4] = test system: Qrsl1; details: mouse cells, active compounds read low
[5] = test system: Apeh; details: mouse cells, active compounds read low
[6] = test system: Htra2; details: mouse cells, active compounds read low
[7] = test system: Tpp2; details: mouse cells, active compounds read low
[8] = test system: Fasn; details: mouse cells, active compounds read low
[9] = target: Acyl-protein thioesterase 1 (Mus musculus) (UniProt P97823); details: mouse cells, Lypla1, active compounds read low
Chain of Acyl-protein thioesterase 1 (Mus musculus) (P97823 whole entry, looked up): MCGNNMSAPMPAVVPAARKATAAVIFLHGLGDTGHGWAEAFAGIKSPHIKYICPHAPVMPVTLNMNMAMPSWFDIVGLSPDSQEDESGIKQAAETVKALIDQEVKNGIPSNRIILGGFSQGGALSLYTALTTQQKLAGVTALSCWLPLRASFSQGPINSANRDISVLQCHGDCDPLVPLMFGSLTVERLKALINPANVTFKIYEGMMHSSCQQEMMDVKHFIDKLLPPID

[10] = test system: Abhd12; details: mouse cells, active compounds read low
[11] = test system: Ppt2; details: mouse cells, active compounds read low
[12] = test system: Ache; details: mouse cells, active compounds read low
[13] = test system: Pafah1b3; details: mouse cells, active compounds read low
[14] = test system: Bat5; details: mouse cells, active compounds read low
[15] = test system: Pme1; details: mouse cells, active compounds read low
[16] = test system: Kiaa1363; details: mouse cells, active compounds read low
[17] = test system: Ctsa; details: mouse cells, active compounds read low
[18] = test system: Pnpla7; details: mouse cells, active compounds read low
[19] = test system: Esd; details: mouse cells, active compounds read low
[20] = test system: Lonp1; details: mouse cells, active compounds read low
[21] = target: Diacylglycerol lipase-beta (Mus musculus) (UniProt Q91WC9); details: mouse cells, Daglb, active compounds read low
Chain of Diacylglycerol lipase-beta (Mus musculus) (Q91WC9 whole entry, looked up): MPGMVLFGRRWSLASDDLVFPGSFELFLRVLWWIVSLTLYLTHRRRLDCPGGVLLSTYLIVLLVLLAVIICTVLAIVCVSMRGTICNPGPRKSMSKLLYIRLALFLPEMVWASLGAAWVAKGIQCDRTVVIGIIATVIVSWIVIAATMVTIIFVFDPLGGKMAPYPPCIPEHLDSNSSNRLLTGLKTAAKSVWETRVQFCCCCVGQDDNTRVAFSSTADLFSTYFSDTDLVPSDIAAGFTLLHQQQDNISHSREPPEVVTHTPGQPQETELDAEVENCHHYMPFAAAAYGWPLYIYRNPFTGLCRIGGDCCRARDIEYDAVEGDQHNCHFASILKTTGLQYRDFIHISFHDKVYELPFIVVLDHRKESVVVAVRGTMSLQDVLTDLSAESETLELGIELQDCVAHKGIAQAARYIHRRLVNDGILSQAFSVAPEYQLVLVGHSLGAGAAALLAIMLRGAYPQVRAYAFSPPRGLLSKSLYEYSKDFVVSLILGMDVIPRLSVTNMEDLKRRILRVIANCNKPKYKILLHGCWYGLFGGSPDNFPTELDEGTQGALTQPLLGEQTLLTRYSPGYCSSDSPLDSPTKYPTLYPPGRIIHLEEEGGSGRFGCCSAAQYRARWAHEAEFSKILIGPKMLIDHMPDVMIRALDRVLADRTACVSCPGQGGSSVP

[22] = test system: Scpep1; details: mouse cells, active compounds read low
[23] = test system: Pnpla6; details: mouse cells, active compounds read low
[24] = target: Monoacylglycerol lipase ABHD6 (Mus musculus) (UniProt Q8R2Y0); details: mouse cells, active compounds read low
Chain of Monoacylglycerol lipase ABHD6 (Mus musculus) (Q8R2Y0 whole entry, looked up): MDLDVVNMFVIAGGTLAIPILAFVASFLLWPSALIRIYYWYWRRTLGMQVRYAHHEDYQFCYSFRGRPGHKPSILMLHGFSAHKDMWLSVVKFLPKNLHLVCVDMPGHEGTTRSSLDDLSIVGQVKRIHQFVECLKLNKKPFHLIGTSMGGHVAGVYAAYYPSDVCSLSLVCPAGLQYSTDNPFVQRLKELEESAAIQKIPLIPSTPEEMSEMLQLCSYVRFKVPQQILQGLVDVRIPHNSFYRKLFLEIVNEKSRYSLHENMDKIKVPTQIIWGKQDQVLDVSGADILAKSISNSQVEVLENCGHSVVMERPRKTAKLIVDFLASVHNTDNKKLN

[25] = test system: Dpp7; details: mouse cells, active compounds read low
[26] = test system: Dpp9; details: mouse cells, active compounds read low
[27] = test system: Plat; details: mouse cells, active compounds read low
[28] = test system: Lypla2; details: mouse cells, active compounds read low
[29] = test system: Iah1; details: mouse cells, active compounds read low
[30] = test system: Fam108b; details: mouse cells, active compounds read low
[31] = target: Abhd4 (UniProt Q8VD66); details: mouse cells, active compounds read low
Chain of Abhd4 (Q8VD66 whole entry, looked up): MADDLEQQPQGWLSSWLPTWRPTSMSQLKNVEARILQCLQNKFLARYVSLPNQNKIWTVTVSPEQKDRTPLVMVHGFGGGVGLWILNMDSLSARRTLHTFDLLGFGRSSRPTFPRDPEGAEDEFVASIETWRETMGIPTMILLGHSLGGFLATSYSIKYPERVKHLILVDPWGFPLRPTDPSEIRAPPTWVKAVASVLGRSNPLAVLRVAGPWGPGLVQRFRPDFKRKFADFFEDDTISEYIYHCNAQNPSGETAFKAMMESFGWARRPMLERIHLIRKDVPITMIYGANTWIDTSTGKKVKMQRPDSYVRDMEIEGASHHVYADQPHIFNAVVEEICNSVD

[32] = test system: Faah; details: mouse cells, active compounds read low
[33] = test system: D230012E17Rik; details: mouse cells, active compounds read low
[34] = target: Palmitoyl-protein thioesterase ABHD10, mitochondrial (Mus musculus) (UniProt Q6PE15); details: mouse cells, active compounds read low
Chain of Palmitoyl-protein thioesterase ABHD10, mitochondrial (Mus musculus) (Q6PE15 whole entry, looked up): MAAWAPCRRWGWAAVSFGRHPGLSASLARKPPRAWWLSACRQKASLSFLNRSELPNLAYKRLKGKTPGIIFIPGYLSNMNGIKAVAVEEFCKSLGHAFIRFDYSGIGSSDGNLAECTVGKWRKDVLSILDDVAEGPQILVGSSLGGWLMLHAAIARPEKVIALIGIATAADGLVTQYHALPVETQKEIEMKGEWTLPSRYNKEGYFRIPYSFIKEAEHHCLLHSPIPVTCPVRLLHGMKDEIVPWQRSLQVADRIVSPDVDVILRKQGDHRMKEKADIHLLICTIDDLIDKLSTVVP

[35] = test system: Parl; details: mouse cells, active compounds read low
[36] = test system: Acot2; details: mouse cells, active compounds read low
[37] = target: Platelet-activating factor acetylhydrolase 2, cytoplasmic (Mus musculus) (UniProt Q8VDG7); details: mouse cells, Pafah2, active compounds read low
Chain of Platelet-activating factor acetylhydrolase 2, cytoplasmic (Mus musculus) (Q8VDG7 whole entry, looked up): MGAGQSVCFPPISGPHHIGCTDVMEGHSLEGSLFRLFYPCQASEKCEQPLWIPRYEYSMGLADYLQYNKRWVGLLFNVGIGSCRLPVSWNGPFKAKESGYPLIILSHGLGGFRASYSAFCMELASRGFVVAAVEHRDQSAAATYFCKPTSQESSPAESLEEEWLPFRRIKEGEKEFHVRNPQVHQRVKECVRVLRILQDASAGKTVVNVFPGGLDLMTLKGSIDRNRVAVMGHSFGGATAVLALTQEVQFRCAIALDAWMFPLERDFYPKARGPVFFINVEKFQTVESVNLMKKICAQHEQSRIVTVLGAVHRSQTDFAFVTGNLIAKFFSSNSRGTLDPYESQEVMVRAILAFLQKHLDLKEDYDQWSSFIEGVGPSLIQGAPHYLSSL

[38] = test system: Fam108c; details: mouse cells, active compounds read low
[39] = test system: Ddhd1; details: mouse cells, active compounds read low
[40] = target: Prolyl endopeptidase (Mus musculus) (UniProt Q9QUR6); details: mouse cells, Prep, active compounds read low
Chain of Prolyl endopeptidase (Mus musculus) (Q9QUR6 whole entry, looked up): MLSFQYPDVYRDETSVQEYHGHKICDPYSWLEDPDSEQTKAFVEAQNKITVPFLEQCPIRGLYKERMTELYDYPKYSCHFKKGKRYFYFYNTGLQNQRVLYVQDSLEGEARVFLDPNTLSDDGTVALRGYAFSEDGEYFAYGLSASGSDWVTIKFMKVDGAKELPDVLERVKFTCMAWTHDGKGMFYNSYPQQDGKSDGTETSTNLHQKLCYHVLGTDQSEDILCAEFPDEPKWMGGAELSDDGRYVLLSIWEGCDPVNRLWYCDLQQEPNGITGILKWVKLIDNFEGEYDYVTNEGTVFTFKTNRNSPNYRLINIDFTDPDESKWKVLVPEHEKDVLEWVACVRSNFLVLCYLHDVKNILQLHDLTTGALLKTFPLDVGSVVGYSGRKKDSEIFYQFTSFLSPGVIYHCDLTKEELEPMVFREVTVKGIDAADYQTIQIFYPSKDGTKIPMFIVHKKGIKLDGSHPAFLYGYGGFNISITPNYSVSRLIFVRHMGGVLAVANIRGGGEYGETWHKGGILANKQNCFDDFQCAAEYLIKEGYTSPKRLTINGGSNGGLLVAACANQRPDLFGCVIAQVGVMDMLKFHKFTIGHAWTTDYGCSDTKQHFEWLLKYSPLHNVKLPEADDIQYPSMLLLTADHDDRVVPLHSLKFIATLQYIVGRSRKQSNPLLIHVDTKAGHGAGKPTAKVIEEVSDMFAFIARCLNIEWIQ

[41] = test system: Lyplal1; details: mouse cells, active compounds read low
[42] = test system: Lypla3; details: mouse cells, active compounds read low
[43] = test system: Serhl; details: mouse cells, active compounds read low
[44] = test system: Lactb; details: mouse cells, active compounds read low
[45] = test system: Abhd11; details: mouse cells, active compounds read low
[46] = test system: Pnpla8; details: mouse cells, active compounds read low

With `COc1ccccc1-c1ccc(-c2cn(C(=O)N3CCCCC3Cc3ccccc3)nn2)cc1` (stereo unspecified) the SILAC ratio (treated/control probe labeling) [1] was 1.12 (inactive), the SILAC ratio (treated/control probe labeling) [2] was 1.03 (inactive) and the SILAC ratio (treated/control probe labeling) [3] was 1 (inactive). For the same molecule, the SILAC ratio (treated/control probe labeling) [4] was 1.45 (inactive), the SILAC ratio (treated/control probe labeling) [5] was 0.97 (inactive) and the SILAC ratio (treated/control probe labeling) [6] was 1.33 (inactive). For the same molecule, the SILAC ratio (treated/control probe labeling) [7] was 0.83 (inactive), the SILAC ratio (treated/control probe labeling) [8] was 1.1 (inactive) and the SILAC ratio (treated/control probe labeling) [9] was 0.93 (inactive). The SILAC ratio (treated/control probe labeling) [10] was 1.15 (inactive), the SILAC ratio (treated/control probe labeling) [11] was 1.37 (inactive) and the SILAC ratio (treated/control probe labeling) [12] was 1.39 (inactive). For the same molecule, the SILAC ratio (treated/control probe labeling) [13] was 0.99 (inactive), the SILAC ratio (treated/control probe labeling) [14] was 1.33 (inactive) and the SILAC ratio (treated/control probe labeling) [15] was 1.08 (inactive). For the same molecule, the SILAC ratio (treated/control probe labeling) [16] was 1.32 (inactive), the SILAC ratio (treated/control probe labeling) [17] was 1.5 (inactive) and the SILAC ratio (treated/control probe labeling) [18] was 1.43 (inactive). For the same molecule, the SILAC ratio (treated/control probe labeling) [19] was 1.13 (inactive), the SILAC ratio (treated/control probe labeling) [20] was 1.86 (inactive) and the SILAC ratio (treated/control probe labeling) [21] was 0.11. For the same molecule, the SILAC ratio (treated/control probe labeling) [22] was 1.46 (inactive), the SILAC ratio (treated/control probe labeling) [23] was 1.22 (inactive) and the SILAC ratio (treated/control probe labeling) [24] was 0.17. For the same molecule, the SILAC ratio (treated/control probe labeling) [25] was 1.19 (inactive), the SILAC ratio (treated/control probe labeling) [26] was 0.94 (inactive) and the SILAC ratio (treated/control probe labeling) [27] was 2.04 (inactive). The SILAC ratio (treated/control probe labeling) [28] was 1.01 (inactive), the SILAC ratio (treated/control probe labeling) [29] was 1.06 (inactive) and the SILAC ratio (treated/control probe labeling) [30] was 1.16 (inactive). The SILAC ratio (treated/control probe labeling) [31] was 0.96 (inactive), the SILAC ratio (treated/control probe labeling) [32] was 1.06 (inactive) and the SILAC ratio (treated/control probe labeling) [33] was 1.19 (inactive). For the same molecule, the SILAC ratio (treated/control probe labeling) [34] was 1.02 (inactive), the SILAC ratio (treated/control probe labeling) [35] was 1.07 (inactive) and the SILAC ratio (treated/control probe labeling) [36] was 1.36 (inactive). The SILAC ratio (treated/control probe labeling) [37] was 0.98 (inactive), the SILAC ratio (treated/control probe labeling) [38] was 1.2 (inactive) and the SILAC ratio (treated/control probe labeling) [39] was 0.99 (inactive). The SILAC ratio (treated/control probe labeling) [40] was 1 (inactive), the SILAC ratio (treated/control probe labeling) [41] was 1.47 (inactive) and the SILAC ratio (treated/control probe labeling) [42] was 0.97 (inactive). The SILAC ratio (treated/control probe labeling) [43] was 1.38 (inactive), the SILAC ratio (treated/control probe labeling) [44] was 1.17 (inactive) and the SILAC ratio (treated/control probe labeling) [45] was 1.41 (inactive). For the same molecule, the SILAC ratio (treated/control probe labeling) [46] was 1.26 (inactive).
